Numbered stars: 1 amine (or outer) side, 2 acyl side, 3 side chain; on linkers, the order of the positions; unused ones are H or OH. Bridge positions count the residues as written; N and C are the ends. Square brackets hold non-standard residues; d marks the D form. Peptide text beside a SMILES is read from it. * marks the point of attachment. ξ: configuration not given here. Pro(4S-NHCO(5-Cl-2-thienyl)) = O=C(N[C@@H]1CN[C@H](C(=O)O)C1)c1ccc(Cl)s1; ξPro(4-NHCO(5-Cl-2-thienyl)) = O=C(NC1CNC(C(=O)O)C1)c1ccc(Cl)s1; 2Thenoyl(5-Cl) = O=C(c1ccc(Cl)s1)*; Benzoyl(4-Cl) = O=C(c1ccc(Cl)cc1)*; Cysteamide = C(CS[*:3])N[*:1]; X1 = O=C(/C=C/c1ccccc1)*; Api = NC1(C(=O)O)CCNCC1; Dap = NC[C@H](N)C(=O)O; X2 = O=C(C=Cc1ccccc1)*; Mpa = O=C(O)CCS
Target: MDM2 (Homo sapiens, UniProt Q00987)
Sequence (Q00987 whole entry): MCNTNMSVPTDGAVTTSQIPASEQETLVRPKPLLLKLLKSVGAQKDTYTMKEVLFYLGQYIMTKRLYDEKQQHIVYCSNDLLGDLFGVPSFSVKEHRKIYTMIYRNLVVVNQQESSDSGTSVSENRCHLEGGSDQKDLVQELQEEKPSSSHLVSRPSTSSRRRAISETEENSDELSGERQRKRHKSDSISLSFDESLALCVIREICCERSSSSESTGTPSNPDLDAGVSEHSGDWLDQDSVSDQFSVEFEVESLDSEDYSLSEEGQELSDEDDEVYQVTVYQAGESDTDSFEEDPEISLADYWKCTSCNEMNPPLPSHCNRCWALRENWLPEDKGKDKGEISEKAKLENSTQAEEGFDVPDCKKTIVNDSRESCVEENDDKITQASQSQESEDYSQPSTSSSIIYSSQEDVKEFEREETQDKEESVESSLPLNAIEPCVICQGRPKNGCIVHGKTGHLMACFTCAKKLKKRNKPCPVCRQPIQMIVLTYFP
Assay: MDM2 binding screen: displacement of fluorescent p53 peptide probe FP53 (fluorescence polarization)
Settings: crude macrocycle reactions; for fraction fluorescent probe displaced, Screen: initial screen
Method in brief: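 Macrocycle reaction products at a final 10 µM were tested for displacement of a p53-based fluorescent peptide from human MDM2. Fluorescence anisotropy (ex 485/em 535 nm) was read once per macrocycle at 25 °C.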

`O=C1CCNC(=O)[C@H](CNC(=O)c2ccc(Cl)cc2)NC(=O)[C@H](Cc2ccccc2)NC(=O)CCSSCCN1` [X F D3 B2 Acid 25] was tested, and the “fraction fluorescent probe displaced, Screen” value (Acid 25) was 0.19 and the “fraction fluorescent probe displaced, Replicate” value (Acid 25) was 0.0211.

With `O=C1CCSSCCNC(=O)[C@H]2CCCN(C2)C(=O)[C@H](CNC(=O)c2ccc(Cl)s2)NC(=O)[C@H](Cc2ccccc2)N1` [X F D3 B4 Acid 14] the “fraction fluorescent probe displaced, Screen” value (Acid 14) was 0.053 and the “fraction fluorescent probe displaced, Replicate” value (Acid 14) was 0.10.

With `O=C1CCSSCCNC(=O)[C@H]2CCCN(C2)C(=O)[C@H](CNC(=O)c2ccc(Cl)cc2)NC(=O)[C@H](Cc2ccccc2)N1` [X F D3 B4 Acid 25] the “fraction fluorescent probe displaced, Screen” value (Acid 25) was 0.12 and the “fraction fluorescent probe displaced, Replicate” value (Acid 25) was 0.10.

`O=C(/C=C/c1ccccc1)NC[C@@H]1NC(=O)[C@H](Cc2ccccc2)NC(=O)CCSSCCNC(=O)[C@H]2CCCN(C2)C1=O` [X F D3 B4 Acid 91] was tested, and the “fraction fluorescent probe displaced, Screen” value (Acid 91) was 0.11 and the “fraction fluorescent probe displaced, Replicate” value (Acid 91) was -0.0333.

`O=C1CCSSCCNC(=O)c2cccc(c2)CNC(=O)[C@H](CNC(=O)c2ccc(Cl)s2)NC(=O)[C@H](Cc2ccccc2)N1` [X F D3 B5 Acid 14] was tested, and the “fraction fluorescent probe displaced, Screen” value (Acid 14) was 0.0241 and the “fraction fluorescent probe displaced, Replicate” value (Acid 14) was -0.03.

For `O=C1CCSSCCNC(=O)c2cccc(c2)CNC(=O)[C@H](CNC(=O)c2ccc(Cl)cc2)NC(=O)[C@H](Cc2ccccc2)N1` [X F D3 B5 Acid 25], the “fraction fluorescent probe displaced, Screen” value (Acid 25) was 0.0569 and the “fraction fluorescent probe displaced, Replicate” value (Acid 25) was 0.07.

For `O=C1CCSSCCNC(=O)[C@@H]2CCCN2C(=O)[C@@H]2C[C@H](NC(=O)c3ccc(Cl)s3)CN2C(=O)[C@H](Cc2ccccc2)N1` [X F D5 B1 Acid 14] ([Mpa]F[Pro(4S-NHCO(5-Cl-2-thienyl))]P-Cysteamide; disulfide 1-C), the “fraction fluorescent probe displaced, Screen” value (Acid 14) was 0.14 and the “fraction fluorescent probe displaced, Replicate” value (Acid 14) was 0.0465.

With `O=C(C=Cc1ccccc1)NC1CC2C(=O)N3CCCC3C(=O)NCCSSCCC(=O)NC(Cc3ccccc3)C(=O)N2C1` (stereo not drawn) [X F D5 B1 Acid 91] the “fraction fluorescent probe displaced, Screen” value (Acid 91) was -0.05 and the “fraction fluorescent probe displaced, Replicate” value (Acid 91) was -0.11.

With `O=C(C=Cc1ccccc1)NC1CC2C(=O)NCCC(=O)NCCSSCCC(=O)NC(Cc3ccccc3)C(=O)N2C1` (stereo not drawn) [X F D5 B2 Acid 91] the “fraction fluorescent probe displaced, Screen” value (Acid 91) was 0.08 and the “fraction fluorescent probe displaced, Replicate” value (Acid 91) was 0.0168.

For `O=C1CCSSCCNC(=O)C2CCCN(C2)C(=O)C2CC(NC(=O)c3ccc(Cl)s3)CN2C(=O)C(Cc2ccccc2)N1` (stereo not drawn) [X F D5 B4 Acid 14], the “fraction fluorescent probe displaced, Screen” value (Acid 14) was -0.00483 and the “fraction fluorescent probe displaced, Replicate” value (Acid 14) was 0.0211.

`O=C1CCSSCCNC(=O)c2cccc(c2)CNC(=O)C2CC(NC(=O)c3ccc(Cl)s3)CN2C(=O)C(Cc2ccccc2)N1` (stereo not drawn) [X F D5 B5 Acid 14] was tested, and the “fraction fluorescent probe displaced, Screen” value (Acid 14) was -0.00483 and the “fraction fluorescent probe displaced, Replicate” value (Acid 14) was -0.00432.

In the case of `O=C(C=Cc1ccccc1)NC1CC2C(=O)NCc3cccc(c3)C(=O)NCCSSCCC(=O)NC(Cc3ccccc3)C(=O)N2C1` (stereo not drawn) [X F D5 B5 Acid 91], the “fraction fluorescent probe displaced, Screen” value (Acid 91) is reported as -0.05 and the “fraction fluorescent probe displaced, Replicate” value (Acid 91) is reported as -0.0333.

In the case of `O=C1CCSSCCNC(=O)[C@@H]2CCCN2C(=O)C2(CCN(C(=O)c3ccc(Cl)cc3)CC2)NC(=O)[C@H](Cc2ccccc2)N1` [X F D6 B1 Acid 25] ([Mpa]F[Api](Benzoyl(4-Cl))P-Cysteamide; disulfide 1-C), the “fraction fluorescent probe displaced, Screen” value (Acid 25) is reported as 0.0244 and the “fraction fluorescent probe displaced, Replicate” value (Acid 25) is reported as 0.17.

With `O=C1CCSSCCNC(=O)C2CCCN2C(=O)C2(CCN(C(=O)C=Cc3ccccc3)CC2)NC(=O)C(Cc2ccccc2)N1` (stereo not drawn) [X F D6 B1 Acid 91] ([Mpa]F[Api](X2)P-Cysteamide; disulfide 1-C; configuration not given here) the “fraction fluorescent probe displaced, Screen” value (Acid 91) was -0.08 and the “fraction fluorescent probe displaced, Replicate” value (Acid 91) was 0.04.

In the case of `O=C1CCNC(=O)C2(CCN(C(=O)c3ccc(Cl)s3)CC2)NC(=O)[C@H](Cc2ccccc2)NC(=O)CCSSCCN1` [X F D6 B2 Acid 14], the “fraction fluorescent probe displaced, Screen” value (Acid 14) is reported as -0.00483 and the “fraction fluorescent probe displaced, Replicate” value (Acid 14) is reported as 0.0465.

For `O=C1CCNC(=O)C2(CCN(C(=O)/C=C/c3ccccc3)CC2)NC(=O)[C@H](Cc2ccccc2)NC(=O)CCSSCCN1` [X F D6 B2 Acid 91], the “fraction fluorescent probe displaced, Screen” value (Acid 91) was 0.03 and the “fraction fluorescent probe displaced, Replicate” value (Acid 91) was -0.00827.

With `O=C1CCSSCCNC(=O)[C@H]2CCCN(C2)C(=O)C2(CCN(C(=O)c3ccc(Cl)s3)CC2)NC(=O)[C@H](Cc2ccccc2)N1` [X F D6 B4 Acid 14] the “fraction fluorescent probe displaced, Screen” value (Acid 14) was 0.053 and the “fraction fluorescent probe displaced, Replicate” value (Acid 14) was 0.10.

In the case of `O=C1CCSSCCNC(=O)[C@H]2CCCN(C2)C(=O)C2(CCN(C(=O)c3ccc(Cl)cc3)CC2)NC(=O)[C@H](Cc2ccccc2)N1` [X F D6 B4 Acid 25], the “fraction fluorescent probe displaced, Screen” value (Acid 25) is reported as -0.00813 and the “fraction fluorescent probe displaced, Replicate” value (Acid 25) is reported as 0.07.

In the case of `O=C1CCSSCCNC(=O)c2cccc(c2)CNC(=O)C2(CCN(C(=O)c3ccc(Cl)s3)CC2)NC(=O)[C@H](Cc2ccccc2)N1` [X F D6 B5 Acid 14], the “fraction fluorescent probe displaced, Screen” value (Acid 14) is reported as 0.053 and the “fraction fluorescent probe displaced, Replicate” value (Acid 14) is reported as 0.0211.

For `O=C1CCSSCCNC(=O)c2cccc(c2)CNC(=O)C2(CCN(C(=O)c3ccc(Cl)cc3)CC2)NC(=O)C(Cc2ccccc2)N1` (stereo not drawn) [X F D6 B5 Acid 25], the “fraction fluorescent probe displaced, Screen” value (Acid 25) was -0.00813 and the “fraction fluorescent probe displaced, Replicate” value (Acid 25) was 0.12.

`O=C1CCSSCCNC(=O)c2cccc(c2)CNC(=O)C2(CCN(C(=O)/C=C/c3ccccc3)CC2)NC(=O)[C@H](Cc2ccccc2)N1` [X F D6 B5 Acid 91] was tested, and the “fraction fluorescent probe displaced, Screen” value (Acid 91) was -0.0241 and the “fraction fluorescent probe displaced, Replicate” value (Acid 91) was -0.0333.

In the case of `O=C1CCNC(=O)C2CN(C(=O)c3ccc(Cl)cc3)CCN2C(=O)C(Cc2ccccc2)NC(=O)CCSSCCN1` (stereo not drawn) [X F D7 B2 Acid 25], the “fraction fluorescent probe displaced, Screen” value (Acid 25) is reported as -0.07 and the “fraction fluorescent probe displaced, Replicate” value (Acid 25) is reported as 0.10.

`O=C1CCSSCCNC(=O)C2CCCN(C2)C(=O)C2CN(C(=O)c3ccc(Cl)s3)CCN2C(=O)C(Cc2ccccc2)N1` (stereo not drawn) [X F D7 B4 Acid 14] was tested, and the “fraction fluorescent probe displaced, Screen” value (Acid 14) was -0.00483 and the “fraction fluorescent probe displaced, Replicate” value (Acid 14) was 0.12.

`O=C1CCSSCCNC(=O)[C@H](CNC(=O)c2ccc(Cl)s2)NC(=O)[C@@H]2CCCN2C(=O)[C@H](Cc2c[nH]c3ccccc23)N1` [X W B1 D3 Acid 14] ([Mpa]WP[Dap](2Thenoyl(5-Cl))-Cysteamide; disulfide 1-C) was tested, and the “fraction fluorescent probe displaced, Screen” value (Acid 14) was 0.14 and the “fraction fluorescent probe displaced, Replicate” value (Acid 14) was 0.22.

`O=C1CCSSCCNC(=O)[C@H](CNC(=O)c2ccc(Cl)cc2)NC(=O)[C@@H]2CCCN2C(=O)[C@H](Cc2c[nH]c3ccccc23)N1` [X W B1 D3 Acid 25] ([Mpa]WP[Dap](Benzoyl(4-Cl))-Cysteamide; disulfide 1-C) was tested, and the “fraction fluorescent probe displaced, Screen” value (Acid 25) was 0.28 and the “fraction fluorescent probe displaced, Replicate” value (Acid 25) was 0.17.

With `O=C(/C=C/c1ccccc1)NC[C@@H]1NC(=O)[C@@H]2CCCN2C(=O)[C@H](Cc2c[nH]c3ccccc23)NC(=O)CCSSCCNC1=O` [X W B1 D3 Acid 91] ([Mpa]WP[Dap](X1)-Cysteamide; disulfide 1-C) the “fraction fluorescent probe displaced, Screen” value (Acid 91) was 0.19 and the “fraction fluorescent probe displaced, Replicate” value (Acid 91) was 0.12.

In the case of `O=C1CCSSCCNC(=O)C2CC(NC(=O)c3ccc(Cl)s3)CN2C(=O)C2CCCN2C(=O)C(Cc2c[nH]c3ccccc23)N1` (stereo not drawn) [X W B1 D5 Acid 14] ([Mpa]WP[ξPro(4-NHCO(5-Cl-2-thienyl))]-Cysteamide; disulfide 1-C; configuration not given here), the “fraction fluorescent probe displaced, Screen” value (Acid 14) is reported as 0.0241 and the “fraction fluorescent probe displaced, Replicate” value (Acid 14) is reported as 0.17.

Source: publication PMC9250534, “Synthesis and direct assay of large macrocycle diversities by combinatorial late-stage modification at picomole scale” (Nature Communications, 2022)
